Assay [1] concerns the target MNK2 (Homo sapiens (Human), UniProt Q9HBH9). The assay can be described thus: In vitro MNK kinase assay (Caliper LabChip mobility shift). It counts as biochemical. As to conditions: enzymatic, 250 μM ATP; read-out: IC50 Mnk2.
The target in assay [2] is MNK1 (Homo sapiens, UniProt Q9BUB5). The assay is described as above. It is filed as biochemical. As to conditions: enzymatic, 1.2 mM ATP; read-out: IC50 Mnk1.

Where only a bound is given, the exact number is not on record here.

Sequence of MNK2 (Q9HBH9 84-388): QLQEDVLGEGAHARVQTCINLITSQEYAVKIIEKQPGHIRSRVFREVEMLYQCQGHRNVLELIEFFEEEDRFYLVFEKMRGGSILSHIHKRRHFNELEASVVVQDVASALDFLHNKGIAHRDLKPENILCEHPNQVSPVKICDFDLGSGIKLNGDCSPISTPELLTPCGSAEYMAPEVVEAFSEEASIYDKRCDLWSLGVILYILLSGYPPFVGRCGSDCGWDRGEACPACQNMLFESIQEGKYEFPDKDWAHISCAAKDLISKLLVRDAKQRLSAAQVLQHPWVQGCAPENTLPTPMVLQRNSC

Regarding `CN1CCCN(C(=O)c2ccc(-c3cn4c(-c5ccc(C#N)cc5)cnc4cn3)cc2)CC1` [Example 17, 4-(6-(4-(4-methyl-1,4-diazepane-1-carbonyl)phenyl)imidazo[1,2-a]pyrazin-3-yl)benzonitrile], the IC50 in assay [1] and in assay [2] was less than 1000 nM each time.
Consider `CN1CCN(C(=O)c2ccc(-c3ccc4ncc(-c5ccc(C#N)cc5)n4n3)cc2Cl)CC1` [Example 72, 4-(6-(3-chloro-4-(4-methylpiperazine-1-carbonyl)phenyl)imidazo[1,2-b]pyridazin-3-yl)benzonitrile], for which the half-maximal inhibitory concentration (IC50) in assay [1] and in assay [2] was less than 100 nM in each case.
Take `CN1CCCN(C(=O)c2ccc(-c3ccc4ncc(-c5ccc(C#N)cc5)n4c3)cc2)CC1` [Example 103, 4-(6-(4-(4-methyl-1,4-diazepane-1-carbonyl)phenyl)imidazo[1,2-a]pyridin-3-yl)benzonitrile]: the IC50 in assay [1] and in assay [2] was less than 100 nM each time.
As for `N#Cc1ccc(-c2cnc3ccc(-c4ccc(C(=O)N5CCNC(=O)C5)cc4)cn23)cc1` [Example 102, 4-(6-(4-(3-oxopiperazine-1-carbonyl)phenyl)imidazo[1,2-a]pyridin-3-yl)benzonitrile], the IC50 in assay [1] and in assay [2] was less than 100 nM in each case.
Regarding `CN1CCN(C(=O)c2ccc(-c3ccc4ncc(-c5ccc6[nH]ncc6c5)n4n3)cc2)CC1` [Example 86, (4-(3-(1H-indazol-5-yl)imidazo[1,2-b]pyridazin-6-yl)phenyl)(4-methylpiperazin-1-yl)methanone], the IC50 in assay [1] and in assay [2] was less than 100 nM each time.
In the case of `N#Cc1ccc(-c2cnc3cnc(-c4ccc(C(=O)N5CCOCC5)cc4)cn23)cc1` [Example 7, 4-(6-(4-(morpholine-4-carbonyl)phenyl)imidazo[1,2-a]pyrazin-3-yl)benzonitrile], the IC50 in assay [1] and in assay [2] was less than 1000 nM each time.
In the case of `CCC1(NC(C)=O)CCN(C(=O)c2ccc(-c3ccc4ncc(-c5ccc(C#N)cc5)n4n3)cc2)CC1` [Example 66, N-(1-(4-(3-(4-cyanophenyl)imidazo[1,2-b]pyridazin-6-yl)benzoyl)-4-ethylpiperidin-4-yl)acetamide], the IC50 in assay [1] and in assay [2] was less than 100 nM in each case.
In the case of `N#Cc1ccc(-c2cnc3ccc(-c4ccc(C(=O)N5CCC6(CCCCN6)CC5)cc4)nn23)cc1` [Example 71, 4-(6-(4-(1,9-diazaspiro[5.5]undecane-9-carbonyl)phenyl)imidazo[1,2-b]pyridazin-3-yl)benzonitrile], the IC50 in assay [1] and in assay [2] was less than 100 nM in each case.
Consider `N#Cc1ccc(-c2cnc3ccc(-c4ccc(C(=O)N5CCNCC5)c(O)c4)cn23)cc1` [Example 159, 4-(6-(3-hydroxy-4-(piperazine-1-carbonyl)phenyl)imidazo[1,2-a]pyridin-3-yl)benzonitrile], for which the IC50 in assay [1] and in assay [2] was less than 100 nM each time.
`N#Cc1ccc(-c2cnc3ccc(-c4ccc(C(=O)N5CCNCC5)cc4)cn23)cc1` [Example 165, 4-(6-(4-(piperazine-1-carbonyl)phenyl)imidazo[1,2-a]pyridin-3-yl)benzonitrile]: the IC50 in assay [1] and in assay [2] was less than 100 nM in each case.
As to `CN1CCC(C2CCN(C(=O)c3ccc(-c4ccc5ncc(-c6ccc(C#N)cc6)n5c4)cc3)CC2)CC1` [Example 105, 4-(6-(4-(1′-methyl-4,4′-bipiperidine-1-carbonyl)phenyl)imidazo[1,2-a]pyridin-3-yl)benzonitrile], the half-inhibitory concentration (IC50) in assay [1] and in assay [2] was less than 100 nM throughout.
Consider `CN1CCN(C(=O)c2ccc(-c3ccc4ncc(-c5ccc(C#N)cc5)n4c3)cc2Cl)CC1` [Example 141, 4-(6-(3-chloro-4-(4-methylpiperazine-1-carbonyl)phenyl)imidazo[1,2-a]pyridin-3-yl)benzonitrile], for which the IC50 in assay [1] and in assay [2] was less than 100 nM each time.
In the case of `N#Cc1ccc(-c2cnc3ccc(-c4ccc(C(=O)N5CCC6(CCCCN6)CC5)cc4)cn23)cc1` [Example 117, 4-(6-(4-(1,9-diazaspiro[5.5]undecane-9-carbonyl)phenyl)imidazo[1,2-a]pyridin-3-yl)benzonitrile], the IC50 in assay [1] and in assay [2] was less than 100 nM in each case.
On to `N#Cc1ccc(-c2cnc3cnc(-c4ccc(C(=O)N5CCC(O)CC5)cc4)cn23)cc1` [Example 15, 4-(6-(4-(4-hydroxypiperidine-1-carbonyl)phenyl)imidazo[1,2-a]pyrazin-3-yl)benzonitrile], for which the IC50 in assay [1] and in assay [2] was less than 1000 nM throughout.
Regarding `CN1CCN(C(=O)c2ccc(-c3ccc4ncc(-c5ccc(C#N)cc5)n4c3)cc2N(C)C)CC1` [Example 147, 4-(6-(3-(dimethylamino)-4-(4-methylpiperazine-1-carbonyl)phenyl)imidazo[1,2-a]pyridin-3-yl)benzonitrile], the IC50 in assay [1] and in assay [2] was less than 100 nM each time.
Take `CC(=O)NC1(C)CCN(C(=O)c2ccc(-c3ccc4ncc(-c5ccc(C#N)cc5)n4c3)cc2)CC1` [Example 99, N-(1-(4-(3-(4-cyanophenyl)imidazo[1,2-a]pyridin-6-yl)benzoyl)-4-methylpiperidin-4-yl)acetamide]: the IC50 in assay [1] and in assay [2] was less than 100 nM throughout.
With `CCN1CCN(C(=O)c2ccc(-c3ccc4ncc(-c5ccc(C#N)cc5)n4c3)cc2)CC1` [Example 98, 4-(6-(4-(4-ethylpiperazine-1-carbonyl)phenyl)imidazo[1,2-a]pyridin-3-yl)benzonitrile], the IC50 in assay [1] and in assay [2] was less than 100 nM throughout.
Turning to `CN(CC(=O)N1CCOCC1)C(=O)c1ccc(-c2ccc3ncc(-c4ccc(C#N)cc4)n3c2)cc1` [Example 101, 4-(3-(4-cyanophenyl)imidazo[1,2-a]pyridin-6-yl)-N-methyl-N-(2-morpholino-2-oxoethyl)benzamide], the IC50 in assay [1] and in assay [2] was less than 100 nM throughout.
Regarding `CC1(N)CCN(C(=O)c2ccc(-c3ccc4ncc(-c5ccc(C#N)cc5)n4n3)cc2)CC1` [Example 58, 4-(6-(4-(4-amino-4-methylpiperidine-1-carbonyl)phenyl)imidazo[1,2-b]pyridazin-3-yl)benzonitrile], the IC50 in assay [1] and in assay [2] was less than 100 nM each time.
On to `CN1CCN(C(=O)c2ccc(-c3ccc4ncc(-c5ccc(C#N)cc5)n4n3)cc2[N+](=O)[O-])CC1` [Example 79, 4-(6-(4-(4-methylpiperazine-1-carbonyl)-3-nitrophenyl)imidazo[1,2-b]pyridazin-3-yl)benzonitrile], for which the IC50 in assay [1] and in assay [2] was less than 100 nM in each case.
Regarding `CN1CCN(C(=O)c2ccc(-c3ccc4ncc(-c5ccc6[nH]cnc6c5)n4n3)cc2)CC1` [Example 87, (4-(3-(1H-benzo[d]imidazol-5-yl)imidazo[1,2-b]pyridazin-6-yl)phenyl)(4-methylpiperazin-1-yl)methanone], the IC50 in assay [1] and in assay [2] was less than 100 nM throughout.
As to `N#Cc1ccc(-c2cnc3ccc(-c4ccc(C(=O)N5CCN(Cc6ccc(C(N)=O)cc6)CC5)cc4)cn23)cc1` [Example 129, 4-((4-(4-(3-(4-cyanophenyl)imidazo[1,2-a]pyridin-6-yl)benzoyl)piperazin-1-yl)methyl)benzamide], the results for the IC50 in assay [1] and in assay [2] were less than 100 nM and less than 1000 nM, respectively.

For orientation: IC50 means the midpoint of a concentration-inhibition curve.

The values above are taken from patent publication US9908886B2 (Agency for Science, Technology and Research, priority 2012, dated 2018).
